Results taken from ChEMBL document CHEMBL4706505, “F10, a new camptothecin derivative, was identified as a new orally-bioavailable, potent antitumor agent” (Eur J Med Chem, 2020).
In brackets after ≈: the same amount, converted by molar mass. Activity calls are given as the source filed them. The rule behind the calls is not given here.

Assays:
[1] = system: NCI-H1975; assay: Cytotoxicity against human NCI-H1975 assessed as reduction in cell viability measured after 72 hrs by MTT assay; format: functional, cell-based; conditions: NCI-H1975, 72 h
[2] = target: T1, DNA topoisomerase 1 (Homo sapiens) (UniProt P11387); assay: Inhibition of human recombinant topoisomerase I using DNA pBR322 as substrate assessed as relaxed DNA at 1 uM incubated for 30 mins by gel electrophoresis analysis relative to control
T1 sequence (whole entry): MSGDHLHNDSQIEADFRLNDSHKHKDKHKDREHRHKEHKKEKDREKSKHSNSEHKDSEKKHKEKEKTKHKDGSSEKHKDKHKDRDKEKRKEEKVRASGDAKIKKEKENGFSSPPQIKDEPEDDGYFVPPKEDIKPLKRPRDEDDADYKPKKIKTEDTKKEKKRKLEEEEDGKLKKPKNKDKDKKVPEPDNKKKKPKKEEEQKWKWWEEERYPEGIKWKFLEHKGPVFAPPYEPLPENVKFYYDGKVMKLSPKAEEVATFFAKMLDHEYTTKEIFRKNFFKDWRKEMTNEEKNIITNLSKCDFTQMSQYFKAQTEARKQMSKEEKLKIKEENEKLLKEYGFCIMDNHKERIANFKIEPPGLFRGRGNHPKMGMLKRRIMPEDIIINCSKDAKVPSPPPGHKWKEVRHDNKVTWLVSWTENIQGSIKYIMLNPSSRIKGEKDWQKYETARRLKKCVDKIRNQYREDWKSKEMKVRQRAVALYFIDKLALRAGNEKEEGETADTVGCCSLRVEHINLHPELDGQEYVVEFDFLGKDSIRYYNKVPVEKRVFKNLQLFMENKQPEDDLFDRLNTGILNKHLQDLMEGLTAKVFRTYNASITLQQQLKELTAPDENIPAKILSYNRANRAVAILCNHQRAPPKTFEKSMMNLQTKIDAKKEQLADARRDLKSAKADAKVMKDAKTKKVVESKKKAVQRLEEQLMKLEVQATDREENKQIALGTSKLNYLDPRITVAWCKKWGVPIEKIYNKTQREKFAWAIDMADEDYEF

[3] = target: T1, DNA topoisomerase 1 (Homo sapiens); assay: Inhibition of human recombinant topoisomerase I using DNA pBR322 as substrate assessed as relaxed DNA at 10 uM incubated for 30 mins by gel electrophoresis analysis relative to control
[4] = system: HCT-116; assay: Inhibition of colony formation in human HCT-116 cells incubated for 12 days by crystal violet dye based assay; format: functional, cell-based; conditions: dose 0.001-1 nM, time 12.0 day
[5] = system: HCT-116; assay: Induction of apoptosis in human HCT-116 cells assessed as late apoptotic cells level at 0.03 uM incubated for 24 hrs by Annexin V-FITC/PI staining based flow cytometry (reference value: 0.07%); format: functional
[6] = system: HCT-116; assay: Induction of apoptosis in human HCT-116 cells assessed as late apoptotic cells level at 1 uM incubated for 24 hrs by Annexin V-FITC/PI staining based flow cytometry (reference value: 0.07%); format: functional
[7] = system: HCT-116; assay: Induction of apoptosis in human HCT-116 cells assessed as early apoptotic cells level at 1 uM incubated for 24 hrs by Annexin V-FITC/PI staining based flow cytometry (reference value: 0.17%); format: functional
[8] = Solubility of compound in phosphate buffer at pH 7.4 incubated for 24 hrs under shaking condition by HPLC analysis; format: physicochemical
[9] = Toxicity in nude BALB/c mouse xenografted with human HCT-116 cells assessed as reduction in body weight at 8 mg/kg, po dosed once the every 2 day for upto 24 days; format: organism-based; conditions: in vivo, time <=24 day
[10] = Toxicity in NPG mouse xenografted with human Raji cells assessed as body weight loss at 4 mg/kg, ig measured on the 1 day; format: organism-based; conditions: in vivo, po, 24 h
[11] = Toxicity in NPG mouse xenografted with human Raji cells assessed as body weight loss at 2 mg/kg, ip measured after 5 day; format: organism-based; conditions: in vivo, 120 h
[12] = Toxicity in NPG mouse xenografted with human Raji cells assessed as body weight loss at 4 mg/kg, ig measured after 5 day; format: organism-based; conditions: in vivo, po, 120 h
[13] = system: HCT-116; assay: Antitumor activity against human HCT-116 cells xenografted in nude BALB/c mouse assessed as tumor growth inhibition at 0.5 mg/kg, ip dosed once the other day for 24 days; format: functional; conditions: HCT-116, ip, 576 h, time 24 day, read-out: TGI
[14] = system: Raji; assay: Antitumor activity against NPG mouse xenografted with human Raji cell assessed as decrease in tumor volume at 2 mg/kg, ip measured on the 1 day; format: functional
[15] = system: Raji; assay: Antitumor activity against NPG mouse xenografted with human Raji cell assessed as decrease in tumor volume at 4 mg/kg, ip measured on the 1 day; format: functional
[16] = system: Raji; assay: Antitumor activity against NPG mouse xenografted with human Raji cell assessed as decrease in tumor volume at 2 mg/kg, ip measured after 5 day; format: functional
[17] = system: Raji; assay: Antitumor activity against NPG mouse xenografted with human Raji cell assessed as tumor growth inhibition at 2 mg/kg, ip measured after 5 day; format: functional; conditions: 120 h, read-out: TGI
[18] = system: Raji; assay: Antitumor activity against NPG mouse xenografted with human Raji cell assessed as tumor growth inhibition at 4 mg/kg, ig measured after 5 day; format: functional; conditions: po, 120 h, read-out: TGI
[19] = Toxicity in Kunming mouse assessed as mortality at 60 mg/kg, iv measured once every 30 mins upto 10 days; format: organism-based; conditions: in vivo, 0.5 h
[20] = Toxicity in Kunming mouse assessed as mortality at 150 mg/kg ip measured once every 30 mins upto 10 days; format: organism-based; conditions: in vivo, 0.5 h
[21] = Toxicity in Kunming mouse assessed as mortality at 200 mg/kg ip measured once every 30 mins upto 10 days; format: organism-based; conditions: in vivo, 0.5 h
[22] = Toxicity in Kunming mouse assessed as mortality at 300 mg/kg ip measured once every 30 mins upto 10 days; format: organism-based; conditions: in vivo, 0.5 h
[23] = Half life in nude BALB/c mouse serum at 8.0 mg/kg incubated up to 9 hrs, iv administered […] by LC-MS/MS analysis; format: ADME, organism-based
[24] = Tmax in nude BALB/c mouse serum at 8.0 mg/kg incubated up to 9 hrs, iv administered […] by LC-MS/MS analysis; format: ADME, organism-based
[25] = Clearance in nude BALB/c mouse serum at 8.0 mg/kg incubated up to 9 hrs, iv administered […] by LC-MS/MS analysis; format: ADME, organism-based
[26] = Half life in nude BALB/c mouse serum at 8.0 mg/kg incubated up to 9 hrs, po administered via gavage by LC-MS/MS analysis; format: ADME, organism-based
[27] = Cmax in nude BALB/c mouse serum at 8.0 mg/kg incubated up to 9 hrs, po administered via gavage by LC-MS/MS analysis; format: ADME, organism-based; set-up: route oral, dose 8 mg/kg, time <=9
[28] = Clearance in nude BALB/c mouse serum at 8.0 mg/kg incubated up to 9 hrs, po administered via gavage by LC-MS/MS analysis; format: ADME, organism-based
[29] = AUC (0 to infinity) in nude BALB/c mouse serum at 8.0 mg/kg incubated up to 9 hrs, po administered via gavage by LC-MS/MS analysis; format: ADME, organism-based; set-up: route oral, dose 8 mg/kg, time <=9; conditions: in vivo

`CCc1c2c(nc3ccc(OCC(=O)N4CCCCC4)cc13)-c1cc3c(c(=O)n1C2)COC(=O)[C@]3(O)CC` showed an IC50 [1] of 84 nM, an inhibition [2] of 38.1% and an inhibition [3] of 52.3%. The inhibition [4] was “Active”, the Activity [5] was 10.73% and the Activity [6] was 6.4%. For the same compound, the Activity [7] was 16.95%, the solubility thermodynamic at 24 h [8] was 19.9 µg/mL (≈ 38.4 µM) and the Activity [9] was “Toxic”. It also gave an Activity [10] of 25.4 g, an Activity [11] of 20.6 g and an Activity [12] of 25.8 g. It also gave an inhibition in vivo at 0.5 mg/kg [13] of 92%, an Activity [14] of 983 mm3 and an Activity [15] of 1186 mm3. It also gave an Activity [16] of 936 mm3, an inhibition in vivo at 2 mg/kg [17] of 104% and an inhibition in vivo at 4 mg/kg [18] of 33.8%. For the same compound, the Activity [19] was “Non-Toxic”, the Activity [20] was “Non-Toxic” and the Activity [21] was “Toxic”. For the same compound, the Activity [22] was “Non-Toxic”, the half-life [23] was 1.03 h and the Tmax [24] was 0.17 h. The clearance [25] was 0.179 mL/min, the half-life [26] was 1.46 h and the Cmax [27] was 332 ng/mL. For the same compound, the CL/F [28] was 0.794 mL/min and the AUC [29] was 168.07 h/ng/mL.
